Data taken from US20050004134A1, “Thiazole derivative and pharmaceutical use thereof” (priority 2001, published 2005).

| SMILES | melting point |
| --- | --- |
| CC(C)n1nc(-c2sc(NCc3ccco3)nc2-c2ccccc2)ccc1=O [Example 66, 6-{2-[(2-Furylmethyl)amino]-4-phenyl-1,3-thiazol-5-yl}-2-isopropyl-3(2H)-pyridazinone] | 115 to 116 °C |
| CC(C)n1nc(-c2sc(NC(=O)c3ccc(Cl)cc3)nc2-c2ccccc2)ccc1=O [Example 47, 4-Chloro-N-[5-(1-isopropyl-6-oxo-1,6-dihydro-3-pyridazinyl)-4-phenyl-1,3-thiazol-2-yl]benzamide] | 205 to 206 °C |
| CC(C)Nc1nc(-c2ccccc2)c(-c2ccc(=O)n(C(C)C)n2)s1 [Example 64, 2-Isopropyl-6-[2-(isopropylamino)-4-phenyl-1,3-thiazol-5-yl]-3(2H)-pyridazinone] | 138 to 139 °C |
| CC(C)n1nc(-c2sc(NC(=O)C3CC3)nc2-c2ccccc2)ccc1=O [Example 33, N-[5-(1-Isopropyl-6-oxo-1,6-dihydro-3-pyridazinyl)-4-phenyl-1,3-thiazol-2-yl]cyclopropanecarboxamide] | 226 to 227 °C |
| CC(C)n1nc(-c2sc(NC(=O)c3cccc(F)c3)nc2-c2ccccc2)ccc1=O [Example 36, 3-Fluoro-N-[5-(1-isopropyl-6-oxo-1,6-dihydro-3-pyridazinyl)-4-phenyl-1,3-thiazol-2-yl]benzamide] | 183 to 184 °C |
| CC(C)n1nc(-c2sc(NC(=O)c3ccc(CN4CCOCC4)cc3)nc2-c2ccccc2)ccc1=O [Example 27, N-[5-(1-Isopropyl-6-oxo-1,6-dihydro-3-pyridazinyl)-4-phenyl-1,3-thiazol-2-yl]-4-(4-morpholinylmethyl)benzamide] | 222 to 224 °C |
| CC(C)n1nc(-c2sc(NC(=O)C3CCCCC3)nc2-c2ccccc2)ccc1=O [Example 7, N-[5-(1-Isopropyl-6-oxo-1,6-dihydro-3-pyridazinyl)-4-phenyl-1,3-thiazol-2-yl]cyclohexanecarboxamide] | 234 to 236 °C |
| CC(C)n1nc(-c2sc(NC(=O)c3ccc(I)cc3)nc2-c2ccccc2)ccc1=O [Example 51, 4-Iodo-N-[5-(1-isopropyl-6-oxo-1,6-dihydro-3-pyridazinyl)-4-phenyl-1,3-thiazol-2-yl]benzamide] | 253 to 254 °C |
| CCCNc1nc(-c2ccccc2)c(-c2ccc(=O)n(C(C)C)n2)s1 [Example 73, 2-Isopropyl-6-[4-phenyl-2-(propylamino)-1,3-thiazol-5-yl]-3(2H)-pyridazinone] | 165 to 166 °C |
| CC(C)n1nc(-c2sc(NC3CCCCC3)nc2-c2ccccc2)ccc1=O [Example 70, 6-[2-(Cyclohexylamino)-4-phenyl-1,3-thiazol-5-yl]-2-isopropyl-3(2H)-pyridazinone] | 149 to 151 °C |
| CC(C)n1nc(-c2sc(NC(=O)CNCCCO)nc2-c2ccccc2)ccc1=O.Cl | 136 to 142 °C |
| Nc1nc(-c2ccccc2)c(-c2ccc(=O)[nH]n2)s1 [Example 84, 6-(2-amino-4-phenyl-1,3-thiazol-5-yl)-3(2H)-pyridazinone] | > 250 °C |
| Cn1nc(-c2sc(N)nc2-c2ccccc2)ccc1=O [Example 85, 6-(2-amino-4-phenyl-1,3-thiazol-5-yl)-2-methyl-3(2H)-pyridazinone] | 238 to 241 °C |
| CC(C)n1nc(-c2sc(NC(=O)c3ccc(CN4CCN(C)CC4)cc3)nc2-c2ccccc2)ccc1=O [Example 97, N-(5-(1-Isopropyl-6-oxo-1,6-dihydro-3-pyridazinyl)-4-phenyl-1,3-thiazol-2-yl]-4-[(4-methyl-1-piperazinyl)methyl]benzamide] | 224 to 227 °C |
| CCCCCCNc1nc(-c2ccccc2)c(-c2ccc(=O)n(C(C)C)n2)s1 [Example 14, 6-[2-(hexylamino)-4-phenyl-1,3-thiazol-5-yl]-2-isopropyl-3(2H)-pyridazinone] | 90 to 92 °C |
| CC(C)n1nc(-c2sc(NC(=O)c3ccc(CNCCN4CCOCC4)cc3)nc2-c2ccccc2)ccc1=O [Example 140, N-[5-(1-Isopropyl-6-oxo-1,6-dihydro-3-pyridazinyl)-4-phenyl-1,3-thiazol-2-yl]-4-({[2-(4-morpholinyl)ethyl]amino}methyl)benzamide] | 86 to 88 °C |
| CC(=O)Nc1nc(-c2ccccc2)c(-c2ccc(=O)n(C(C)C)n2)s1 [Example 6, N-[5-(1-isopropyl-6-oxo-1,6-dihydro-3-pyridazinyl)-4-phenyl-1,3-thiazol-2-yl]-acetamide] | 202 to 204 °C |
| CCCn1nc(-c2sc(N)nc2-c2ccccc2)ccc1=O [Example 86, 6-(2-Amino-4-phenyl-1,3-thiazol-5-yl)-2-propyl-3(2H)-pyridazinone] | 224 to 226 °C |

The next lines start with the values.

| melting point | SMILES |
| --- | --- |
| 133.5 to 135 °C | CC(C)n1nc(-c2sc(C(=O)NC3CC3)nc2-c2ccccc2F)ccc1=O [Example 196, N-cyclopropyl-4-(2-fluorophenyl)-5-(1-isopropyl-6-oxo-1,6-dihydro-3-pyridazinyl)-1,3-thiazole-2-carboxamide] |
| 106.5 to 107.5 °C | CCCNC(=O)c1nc(-c2ccccc2)c(-c2ccc(=O)n(CC)n2)s1 [Example 171, 5-(1-ethyl-6-oxo-1,6-dihydro-3-pyridazinyl)-4-phenyl-N-propyl-1,3-thiazole-2-carboxamide] |
| 187.5 to 188.5 °C | Cc1cnc(CNC(=O)c2nc(-c3ccc(F)cc3)c(-c3ccc(=O)n(C(C)C)n3)s2)cn1 [Example 221, 4-(4-Fluorophenyl)-5-(1-isopropyl-6-oxo-1,6-dihydro-3-pyridazinyl)-N-[(5-methyl-2-pyrazinyl)methyl]-1,3-thiazole-2-carboxamide] |
| 226.5 to 227.5 °C | CC(C)n1nc(-c2sc(C(N)=O)nc2-c2ccc(F)cc2)ccc1=O [Example 165, 4-(4-Fluorophenyl)-5-(1-isopropyl-6-oxo-1,6-dihydro-3-pyridazinyl)-1,3-thiazole-2-carboxamide] |
| 163.5 to 165 °C | CC(C)n1nc(-c2sc(C(=O)N3CCN(c4ccccc4)CC3)nc2-c2ccccc2)ccc1=O [Example 231, 2-isopropyl-6-(4-phenyl-2-[(4-phenyl-1-piperazinyl)carbonyl]-1,3-thiazol-5-yl}-3(2H)-pyridazinone] |
| 78 to 82 °C | CC(=O)N1CCN(C(=O)c2nc(-c3ccccc3)c(-c3ccc(=O)n(C(C)C)n3)s2)CC1 [Example 219, 6-{2-[(4-Acetyl-1-piperazinyl)carbonyl]-4-phenyl-1,3-thiazol-5-yl}-2-isopropyl-3(2H)-pyridazinone] |
| 170 to 171.5 °C | CC(=O)NCCNC(=O)c1nc(-c2ccccc2)c(-c2ccc(=O)n(C(C)C)n2)s1 [Example 217, N-[2-(Acetylamino)ethyl]-5-(1-isopropyl-6-oxo-1,6-dihydro-3-pyridazinyl)-4-phenyl-1,3-thiazole-2-carboxamide] |
| 188 to 189.5 °C | CC(C)n1nc(-c2sc(C(=O)NCc3ccccn3)nc2-c2cccc(F)c2)ccc1=O [Example 208, 4-(3-Fluorophenyl)-5-(1-isopropyl-6-oxo-1,6-dihydro-3-pyridazinyl)-N-(2-pyridinylmethyl)-1,3-thiazole-2-carboxamide] |
| 201 to 202 °C | CCCn1nc(-c2sc(C(N)=O)nc2-c2ccccc2)ccc1=O [Example 167, 5-(6-oxo-1-propyl-1,6-dihydro-3-pyridazinyl)-4-phenyl-1,3-thiazole-2-carboxamide] |
